Source: US11478478B2, “2,3-disubstituted 1-acyl-4-amino-1,2,3,4-tetrahydroquinoline derivatives and their use as bromodomain inhibitors” (GLAXOSMITHKLINE INTELLECTUAL PROPERTY (NO.2) LIMITED, priority 2013, dated 2022)
Counter-ions that a name gives are not always drawn.

These molecules were tested against T1, BRD4 BD2 (Homo sapiens, UniProt O60885, Y97A) (assay: TR-FRET binding assay, BRD4 BD2 (BD1-mutated protein)). Settings: read-out: pIC50 in the BRD4 BD2 assay (converted).
T1 construct: BRD4 (1-477) (Y97A) and (Y390A); made in house; host or cells: E. coli (pET15b vector)
In short: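 Displacement of Alexa Fluor647-labelled bromodomain ligand (at Kd) from 10 nM His-tagged BRD4 (1-477, Y97A) read by Eu-anti-His TR-FRET (665/615 ratio) in pH 7.4 HEPES buffer, 0.5% DMSO. Compound preincubated 30 min at rt, detection ≥30 min. pIC50 derived from four-parameter fit after normalisation to controls.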

Row | Compound | IC50 [nM]
1 | CC(=O)N1c2ccc(-c3cn[nH]c3)cc2[C@H](Nc2ncccn2)[C@@H](C)[C@@H]1C1CC1 [Example 581, 1-((2S,3R,4R)-2-cyclopropyyl-3-methyl-6-(1H-pyrazol-4-yl)-4-(pyrimidin-2-ylamino)-3,4-dihydroquinolin-1(2H)-yl)ethanone] | 100
2 | CC(=O)N1c2ccc(C(=O)NCCO)cc2[C@H](Nc2ccc(F)cn2)[C@@H](C)[C@@H]1C [Example 479, (2S,3R,4R)-1-acetyl-4-((5-fluoropyridin-2-yl)amino)-N-(2-hydroxyethyl)-2,3-dimethyl-1,2,3,4-tetrahydroquinoline-6-carboxamide] | 100
3 | CC(=O)N1c2ccc(F)cc2[C@H](Nc2ccc(O)nc2)[C@@H](C)[C@@H]1C1CC1 [Example 533, 1-((2S,3R,4R)-2-cyclopropyl-6-fluoro-4-((6-hydroxypyridin-3-yl)amino)-3-methyl-3,4-dihydroquinolin-1(2H)-yl)ethanone] | 1000 to 100000
4 | CC(=O)N1c2ccc(C3CCNCC3)cc2[C@H](Nc2cnc(C)cn2)[C@@H](C)[C@@H]1C (racemic) [Example 183, rac-1-((2S,3R,4R)-2,3-dimethyl-4-((5-methylpyrazin-2-yl)amino)-6-(piperidin-4-yl)-3,4-dihydroquinolin-1(2H)-yl)ethanone, hydrochloride] | 1000 to 100000
5 | CC[C@H]1[C@H](C)[C@@H](Nc2cnc(C)cn2)c2cc(N3CCNCC3)ccc2N1C(C)=O (racemic) [Example 218, rac-1-((2S,3R,4R)-2-ethyl-3-methyl-4-((5-methylpyrazin-2-yl)amino)-6-(piperazin-1-yl)-3,4-dihydroquinolin-1(2H)-yl)ethanone] | 1000 to 100000
6 | CC(=O)N1c2ccc(N3CCOCC3)nc2[C@H](Nc2ccccc2)[C@@H](C)[C@@H]1C1CC1 (racemic) [Example 110, rac-1-((2S,3R,4R)-2-cyclopropyl-3-methyl-6-morpholino-4-(phenylamino)-3,4-dihydro-1,5-naphthyridin-1(2H)-yl)ethanone] | 1000 to 100000
7 | CC(=O)N1c2ccc(N3CCOCC3)cc2[C@@H](Nc2ccccc2)[C@H](C)[C@H]1C (single isomer, unassigned) [Example 71b] | 100
8 | CC(=O)N1c2ccccc2[C@H](Nc2cncc(C)n2)[C@@H](C)[C@@H]1C1CC1 (racemic) [Example 48, rac-1-((2S,3R,4R)-2-cyclopropyl-3-methyl-4-((6-methylpyrazin-2-yl)amino)-3,4-dihydroquinolin-1(2H)-yl)ethanone] | 1000 to 100000
9 | CC(=O)N1c2ccc(C3=CCNCC3)cc2[C@H](Nc2cccc(C)n2)[C@@H](C)[C@@H]1C1CC1 (single isomer, unassigned) [Example 189a] | 100
10 | CC(=O)N1c2ccc(F)cc2[C@H](Nc2ccnc(O)n2)[C@@H](C)[C@@H]1C [Example 517, 1-((2S,3R,4R)-6-fluoro-4-((2-hydroxypyrimidin-4-yl)amino)-2,3-dimethyl-3,4-dihydroquinolin-1(2H)-yl)ethanone] | 1000 to 100000
11 | CC[C@H]1[C@H](C)[C@@H](Nc2cccc(C)n2)c2cc(F)ccc2N1C(C)=O (single isomer, unassigned) [Example 146a] | 100
12 | COCCn1cc(-c2ccc3c(c2)[C@@H](Nc2cnc(C)cn2)[C@H](C)[C@@H](C2CC2)N3C(C)=O)cn1 (single isomer, unassigned) [Example 138b] | 1000 to 100000
13 | CC(=O)N1c2ccccc2[C@H](Nc2ccccc2)[C@@H](C)[C@@H]1CC(F)(F)F (racemic) [Example 53, rac-1-((2S,3R,4R)-3-methyl-4-(phenylamino)-2-(2,2,2-trifluoroethyl)-3,4-dihydroquinolin-1(2H)-yl)ethanone] | 1000 to 100000
14 | COc1cc2c(cc1C(N)=O)[C@H](Nc1nccc(C)n1)[C@@H](C)[C@H](C1CC1)N2C(C)=O (racemic) [Example 593, rac-(2S,3R,4R)-1-acetyl-2-cyclopropyl-7-methoxy-3-methyl-4-((4-methylpyrimidin-2-yl)amino)-1,2,3,4-tetrahydroquinoline-6-carboxamide] | 1000 to 100000
15 | CC(=O)N1c2ccc(-c3ncc[nH]3)cc2[C@H](Nc2ncccn2)[C@@H](C)[C@@H]1C1CC1 [Example 588, 1-((2S,3R,4R)-2-cyclopropyl-6-(1H-imidazol-2-yl)-3-methyl-4-(pyrimidin-2-ylamino)-3,4-dihydroquinolin-1(2H)-yl)ethanone] | 100
16 | CC(=O)N1c2ccc(C(=O)NCCO)cc2[C@H](Nc2ccc(F)c(C)n2)[C@@H](C)[C@@H]1C [Example 433, (2S,3R,4R)-1-acetyl-4-((5-fluoro-6-methylpyridin-2-yl)amino)-N-(2-hydroxyethyl)-2,3-dimethyl-1,2,3,4-tetrahydroquinoline-6-carboxamide] | 100
17 | CC(=O)N1c2ccc(C3=CCOCC3)cc2[C@H](Nc2ccc(C#N)cn2)[C@@H](C)[C@@H]1C1CC1 (racemic) [Example 181, rac-6-(((2S,3R,4R)-1-acetyl-2-cyclopropyyl-6-(3,6-dihydro-2H-pyran-4-yl)-3-methyl-1,2,3,4-tetrahydroquinolin-4-yl)amino)nicotinonitrile] | 100

Row | Compound | IC50 [nM]
18 | CC(=O)N1c2ccc(N3CCOCC3)cc2[C@H](Nc2ccccc2)[C@@H](C)[C@@H]1C (single isomer, unassigned) [Example 71a] | 1000 to 100000
19 | CC(=O)N1c2ccc(C(=O)O)cc2[C@H](Nc2ccc(S(C)(=O)=O)cc2)[C@@H](C)[C@@H]1C1CC1 [Example 332, (2S,3R,4)-1-acetyl-2-cyclopropyl-3-methyl-4-((4-(methylsulfonyl)phenyl)amino)-1,2,3,4-tetrahydroquinoline-6-carboxylic acid] | 1000 to 100000
20 | CC(=O)N1c2ccccc2[C@H](Nc2ccccc2)[C@@H](CO)[C@@H]1C1CC1 (racemic) [Example 592, rac-1-((2S,3R,4R)-2-cyclopropyl-3-(hydroxymethyl)-4-(phenylamino)-3,4-dihydroquinolin-1(2H)-yl)ethanone] | 1000 to 100000
21 | CC(=O)N1c2ccc(C(=O)N[C@@H]3CCOC3)cc2[C@H](Nc2cccc(C)n2)[C@@H](C)[C@@H]1C1CC1 [Example 261, (2S,3R,4R)-1-acetyl-2-cyclopropyl-3-methyl-4-((6-methylpyridin-2-yl)amino)-N—((R)-tetrahydrofuran-3-yl)-1,2,3,4-tetrahydroquinoline-6-carboxamide] | 100
22 | CC(=O)N1c2cccnc2[C@H](Nc2ccccc2)[C@@H](C)[C@@H]1C1CC1 (single isomer, unassigned) [Example 102b] | 1000 to 100000
23 | CC(=O)N1c2ccccc2[C@H](Nc2cccc(C)n2)[C@@H](C)[C@@H]1C1CC1 (single isomer, unassigned) [Example 29a] | 100
24 | CC(=O)N1c2ccc(C(=O)NCCS(C)(=O)=O)cc2[C@H](Nc2cccc(C)n2)[C@@H](C)[C@@H]1C1CC1 [Example 262, (2S,3R,4R)-1-acetyl-2-cyclopropyl-3-methyl-4-((6-methylpyridin-2-yl)amino)-N-(2-(methylsulfonyl)ethyl)-1,2,3,4-tetrahydroquinoline-6-carboxamide] | 100
25 | CC[C@H]1[C@H](C)[C@@H](Nc2cccc(C)n2)c2cc(C(=O)NC(C)C)ccc2N1C(C)=O (racemic) [Example 285, rac-(2S,3R,4R)-1-acetyl-2-ethyl-N-isopropyl-3-methyl-4-((6-methylpyridin-2-yl)amino)-1,2,3,4-tetrahydroquinoline-6-carboxamide] | 100
26 | CNC(=O)c1ccc2c(c1)[C@H](Nc1cccc(C)n1)[C@@H](C)[C@H](C1CC1)N2C(C)=O (single isomer, unassigned) [Example 239a] | 100
27 | COCCNC(=O)c1ccc2c(c1)[C@H](Nc1cccc(C)n1)[C@@H](C)[C@H](C1CC1)N2C(C)=O [Example 256, (2S,3R,4R)-1-acetyl-2-cyclopropyl-N-(2-methoxyethyl)-3-methyl-4-((6-methylpyridin-2-yl)amino)-1,2,3,4-tetrahydroquinoline-6-carboxamide] | 100
28 | COc1ncccc1N[C@H]1c2cc(F)ccc2N(C(C)=O)[C@@H](C)[C@@H]1C [Example 509, 1-((2S,3R,4R)-6-fluoro-4-((2-methoxypyridin-3-yl)amino)-2,3-dimethyl-3,4-dihydroquinolin-1(2H)-yl)ethanone] | 100
29 | COCCn1cc(-c2ccc3c(c2)[C@H](Nc2nccc(C)n2)[C@@H](C)[C@H](C2CC2)N3C(C)=O)cn1 [Example 557, 1-((2S,3R,4R)-2-cyclopropyl-6-(1-(2-methoxyethyl)-1H-pyrazol-4-yl)-3-methyl-4-((4-methylpyrimidin-2-yl)amino)-3,4-dihydroquinolin-1(2H)-yl)ethanone] | 100
30 | CNC(=O)c1ccc2c(c1)[C@H](Nc1cccc(C)n1)[C@@H](C)[C@H](C)N2C(C)=O (racemic) [Example 231, rac-(2S,3R,4R)-1-acetyl-N,2,3-trimethyl-4-((6-methylpyridin-2-yl)amino)-1,2,3,4-tetrahydroquinoline-6-carboxamide] | 100
31 | CC(=O)N1c2ccc(C(N)=O)cc2[C@H](Nc2cccc(F)c2)[C@@H](C)[C@@H]1C1CC1 [Example 359, (2S,3R,4R)-1-acetyl-2-cyclopropyl-4-((3-fluorophenyl)amino)-3-methyl-1,2,3,4-tetrahydroquinoline-6-carboxamide] | 100
32 | CC(=O)N1c2ccc(N3CCNC(C)C3)cc2[C@H](Nc2ccccc2)[C@@H](C)[C@@H]1C (mixture of isomers) [Example 72, 1-((rac-2S,3R,4R)-2,3-dimethyl-6-(3-methylpiperazin-1-yl)-4-(phenylamino)-3,4-dihydroquinolin-1(2H)-yl)ethanone, formate salt] | 100
33 | CC(=O)N1c2ccc(N3CCOCC3)cc2[C@H](Nc2ccccc2)[C@@H](C)[C@@H]1C1CC1 [Example 91a, 1-((2S,3R,4R)-2-cyclopropyyl-3-methyl-6-morpholino-4-(phenylamino)-3,4-dihydroquinolin-1(2H)-yl)ethanone] | 100
